The numbers were not newly measured in patent publication US11654095B2, “Method for dyeing keratinous material, comprising the use of an organosilicon compound, a chromophoric compound, a modified fatty acid ester and a sealing reagent II” (Henkel AG & Co. KGaA, priority 2019, dated 2023), which cites them from elsewhere.

Like-named read-outs stand apart in the source and are kept apart here.

Consider `O=C([O-])c1c(Cl)c(Cl)c(Cl)c(Cl)c1-c1c2c(Br)cc(=O)c(Br)c-2oc2c(Br)c(O)cc(Br)c12.O=C([O-])c1c(Cl)c(Cl)c(Cl)c(Cl)c1-c1c2c(Br)cc(=O)c(Br)c-2oc2c(Br)c(O)cc(Br)c12.[Na+].[Na+]` [Acid Red 92, disodium salt of 3,4,5,6-tetrachloro-2-(1,4,5,8-tetrabromo-6-hydroxy-3-oxoxanthen-9-yl)benzoic acid], for which, for the setting “25° C.”, the solubility in water entry was “greater than 10 g/L”.
Take `O=S(=O)([O-])c1ccc(N=Nc2c(O)ccc3ccccc23)cc1.[Na+]` [Acid Orange 7, sodium salt of 4-[(2-hydroxy-1-naphthyl)azo]benzene sulphonate]: under “25° C.”, the solubility in water result is “more than 7 g/L”.
Consider `O=C([O-])C1=NN(c2ccc(S(=O)(=O)[O-])cc2)C(=O)C1N=Nc1ccc(S(=O)(=O)[O-])cc1.[Na+].[Na+].[Na+]` (stereo not shown) [Acid Yellow 23, trisodium salt of 4,5-dihydro-5-oxo-1-(4-sulfophenyl)-4-((4-sulfophenyl)azo)-1H-pyrazole-3-carboxylic acid], for which the “solubility in water” value (water at 25° C.) is recorded as “highly soluble”.
Regarding `Nc1cc(S(=O)(=O)[O-])cc2cc(S(=O)(=O)[O-])c(N=Nc3ccccc3)c(O)c12.[Na+].[Na+]` [Acid Red 33, disodium salt of 5-amino-4-hydroxy-3-(phenylazo)-naphthalene-2,7-disulphonate], the solubility in water (25° C.) was 2500 µg/mL.
